Assay results published in ChEMBL document CHEMBL1201862, “PubChem BioAssay data set” (2004).
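Cultured in 96-well plates, cells were exposed to test compound for 48 hours across five concentrations. GI50 = concentration required for 50% inhibition of growth.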 The source made the active and inactive calls. Cut-off read from the data, not from the text of the source: active = GI50 up to about 1.1 µM and inactive = higher.

Columns and labels:
Experiment in all cases: DTP human tumour cell line panel, 48 h
[1] = system: U-251
[2] = system: SF-539
[3] = system: DMS-114
[4] = system: SF-268
[5] = system: TK-10
[6] = system: SNB-75
[7] = system: SK-MEL-2
[8] = system: UACC-257
[9] = system: SN12C
[10] = system: M14
[11] = system: OVCAR-5
[12] = system: HCC 2998
[13] = system: NCI-H23
[14] = system: CAKI-1
[15] = system: A498
[16] = system: NCI-H226
[17] = system: NCI/ADR-RES
[18] = system: 786-0
[19] = system: T47D
[20] = system: PC-3

Measured: GI50

Cc1cc(O)nc(NN2C(Cl)C(=O)C2c2ccco2)n1 (stereo unspecified)
inactive: [1] 30.5 µM | [2] 22.6 µM | [3] 34.4 µM | [4] 29.4 µM | [5] 61.2 µM | [6] 13.7 µM | [7] 27.6 µM | [8] 48.9 µM | [9] 24.2 µM | [10] 33.8 µM | [11] > 100 µM | [12] 60 µM | [13] 28 µM

Oc1cc2cc(O)nc(O)c2c(O)n1
inactive: [1] > 100 µM | [2] > 100 µM | [3] > 100 µM | [4] > 100 µM | [5] > 100 µM | [14] > 100 µM | [6] > 100 µM | [8] > 100 µM | [9] > 100 µM | [15] > 100 µM | [10] > 100 µM | [11] > 100 µM | [13] > 100 µM | [16] > 100 µM

Nc1ccn(C2OC(CO)C(O)C2O)c(=O)c1 (stereo unspecified)
inactive: [1] > 625 µM | [2] 186 µM | [4] > 625 µM | [14] 176 µM | [6] 583 µM | [17] 180 µM | [9] 108 µM | [12] 63.2 µM | [13] > 625 µM | [16] > 625 µM

CC(=N/NC(=S)Nc1c(C)n(C)n(-c2ccccc2)c1=O)/C(C)=N\NC(=S)Nc1c(C)n(C)n(-c2ccccc2)c1=O
inactive: [1] > 100 µM | [2] > 100 µM | [4] > 100 µM | [5] > 100 µM | [14] > 100 µM | [6] > 100 µM | [7] > 100 µM | [17] > 100 µM | [18] > 100 µM | [8] > 100 µM | [19] > 100 µM | [15] > 100 µM | [10] > 100 µM | [11] > 100 µM | [12] > 100 µM | [13] > 100 µM | [20] > 100 µM | [16] > 100 µM

CC(=O)Nc1ccc(C(=O)N2N=C(C)/C(=C/c3ccc(O)cc3)C2=O)cc1
inactive: [1] > 100 µM | [2] > 100 µM | [3] > 100 µM | [4] > 100 µM | [5] > 100 µM | [14] > 100 µM | [6] > 100 µM | [7] > 100 µM | [18] > 100 µM | [8] > 100 µM | [9] > 100 µM | [11] > 100 µM | [12] > 100 µM | [13] > 100 µM | [16] > 100 µM

COc1c2c(c3ccccc3c1O)C1C=CC2C1 (stereo unspecified)
inactive: [1] 11.7 µM | [2] 14.6 µM | [3] 4.95 µM | [4] 17.7 µM | [5] 22.3 µM | [14] 17.1 µM | [7] 17.3 µM | [9] 15.1 µM | [10] 14.7 µM | [11] 18.7 µM | [12] 16.1 µM | [13] 14.6 µM | [16] > 10 µM

O=C(O)c1c[nH]c2c(=O)[nH]cnc12
inactive: [3] > 100 µM | [4] > 100 µM | [5] > 100 µM | [14] > 100 µM | [6] > 100 µM | [7] > 100 µM | [18] > 100 µM | [8] > 100 µM | [9] > 100 µM | [10] > 100 µM | [11] > 100 µM | [12] > 100 µM | [13] > 100 µM

COc1ccc(-c2c3c(nc4[nH]c(=S)[nH]c(=S)c24)CCCC3)cc1OC
inactive: [1] 18.4 µM | [2] 15.3 µM | [4] 31 µM | [5] 17.6 µM | [14] 34.7 µM | [6] 14.3 µM | [17] 21.5 µM | [8] 32 µM | [19] 25.9 µM | [9] 13.5 µM | [10] 28.6 µM | [11] 28.8 µM | [13] 29.3 µM | [20] 24 µM

Cc1cccc(NC(N)=S)c1
inactive: [1] > 100 µM | [2] > 100 µM | [3] > 100 µM | [4] > 100 µM | [5] > 100 µM | [6] > 100 µM | [7] > 100 µM | [8] > 100 µM | [9] > 100 µM | [15] > 100 µM | [10] > 100 µM | [11] > 100 µM | [12] > 100 µM | [13] > 100 µM

C/C(N)=N/OCc1nc(C)no1
inactive: [1] > 100 µM | [2] > 100 µM | [4] > 100 µM | [5] > 100 µM | [14] > 100 µM | [6] > 100 µM | [17] > 100 µM | [18] > 100 µM | [8] > 100 µM | [19] > 100 µM | [9] > 100 µM | [10] > 100 µM | [12] > 100 µM | [13] > 100 µM | [20] > 100 µM

COc1cc(CNc2nc3c(NC(C)=O)cc(C(F)(F)F)cc3nc2-c2ccccc2)cc(OC)c1OC
inactive: [2] > 100 µM | [3] > 100 µM | [4] > 100 µM | [5] > 100 µM | [14] > 100 µM | [7] > 100 µM | [9] > 100 µM | [11] > 100 µM | [12] > 100 µM | [16] > 100 µM

COc1ccc(C(=C2C=CC=C2)c2ccc(OC)cc2)cc1
inactive: [1] 27.7 µM | [2] 10.8 µM | [4] 55.7 µM | [5] 50.4 µM | [14] 23 µM | [6] 59 µM | [7] 24.8 µM | [17] 47.3 µM | [8] 34.4 µM | [19] 24.2 µM | [9] 37.1 µM | [10] 61.1 µM | [11] 32.3 µM | [12] 19.3 µM | [13] 34.2 µM | [20] 47.5 µM | [16] 50.5 µM

CC12CCC(C(=O)OC1=O)C(C)(C)O2 (stereo unspecified)
inactive: [1] > 100 µM | [2] > 100 µM | [4] > 100 µM | [5] > 100 µM | [14] > 100 µM | [6] > 100 µM | [7] > 100 µM | [17] > 100 µM | [8] > 100 µM | [19] > 100 µM | [9] > 100 µM | [10] > 100 µM | [11] > 100 µM | [12] > 100 µM | [13] > 100 µM | [20] > 100 µM | [16] > 100 µM

O=C(O)C(Br)Cc1ccc2c(c1)OCO2 (stereo unspecified)
inactive: [1] > 100 µM | [2] > 100 µM | [3] > 100 µM | [4] > 100 µM | [14] > 100 µM | [6] 20.9 µM | [7] > 100 µM | [8] > 100 µM | [9] > 100 µM | [15] 47.2 µM | [10] > 100 µM | [11] > 100 µM | [12] > 100 µM | [13] > 100 µM

COc1ccc([C@@H]2ON(C)[C@H]3CN(C)C(=O)[C@@H]23)cc1
inactive: [1] > 100 µM | [5] > 100 µM | [14] > 100 µM | [6] 10.1 µM | [7] > 100 µM | [17] > 100 µM | [8] > 100 µM | [19] > 100 µM | [9] > 100 µM | [10] > 100 µM | [11] > 100 µM | [12] > 100 µM | [13] > 100 µM | [20] > 100 µM | [16] > 100 µM

COP(=O)(OC)C(Cc1c[nH]c2ccccc12)NC(=O)OCc1ccccc1 (stereo unspecified)
inactive: [1] > 100 µM | [5] > 100 µM | [14] > 100 µM | [6] > 100 µM | [7] > 100 µM | [17] > 100 µM | [8] > 100 µM | [19] 71.3 µM | [9] > 100 µM | [15] > 100 µM | [10] > 100 µM | [11] > 100 µM | [12] > 100 µM | [13] > 100 µM | [20] > 100 µM | [16] > 100 µM

O=C(Nc1c(Cl)cc([N+](=O)[O-])cc1Cl)/C(=N\Nc1cccc(Cl)c1)c1c(O)c2ccccc2oc1=O
inactive: [2] > 100 µM | [3] 52.7 µM | [4] 69.8 µM | [5] > 100 µM | [7] > 100 µM | [18] > 100 µM | [8] > 100 µM | [9] 34.2 µM | [15] 21.2 µM | [11] 31.3 µM | [12] > 100 µM | [13] 62.7 µM

Oc1[nH]c(Nc2cccc(Br)c2)nc2ncnc1-2
inactive: [4] 56.4 µM | [5] 87.1 µM | [14] > 100 µM | [6] 57.7 µM | [7] 23.6 µM | [17] > 100 µM | [18] > 100 µM | [8] > 100 µM | [19] 98.4 µM | [10] > 100 µM | [11] > 100 µM | [12] > 100 µM | [13] > 100 µM | [20] 98.2 µM | [16] > 100 µM

CC1CC2C3CCC4=CC(=O)C=CC4(C)C3(F)C(O)CC2(C)C1(O)C(=O)COP(=O)(O)O (stereo unspecified)
inactive: [1] > 100 µM | [2] > 100 µM | [4] > 100 µM | [5] > 100 µM | [14] > 100 µM | [6] > 100 µM | [7] > 100 µM | [8] > 100 µM | [19] > 100 µM | [15] > 100 µM | [10] > 100 µM | [11] > 100 µM | [12] > 100 µM | [13] > 100 µM | [20] > 100 µM | [16] > 100 µM
